{"source": "ChEMBL document CHEMBL4190251", "about": "“Design and synthesis of conformationally constrained salinomycin derivatives” (Eur J Med Chem, 2017)", "key": {"[1]": {"system": "HT-29", "experiment": "Antiproliferative activity against human HT-29 cells at 10 uM after 48 hrs by MTT assay relative to control", "assay_type": "functional"}, "[2]": {"system": "HT-29", "experiment": "Antiproliferative activity against human HT-29 cells after 48 hrs by MTT assay", "assay_type": "functional, cell-based", "details": "HT-29, 48 h"}}, "data": [{"smiles": "C=CCCC(=O)O[C@@H]1CC[C@]2(O[C@H]([C@@H](CC)C(=O)[C@@H](C)[C@@H](O)[C@H](C)[C@@H]3O[C@@H]([C@@H](CC)C(=O)OCC=C)CC[C@@H]3C)[C@@H](C)C[C@H]2C)O[C@@]12CC[C@@](C)([C@H]1CC[C@](O)(CC)[C@H](C)O1)O2", "values": [{"measurement": "Activity", "setting": "[1]", "value": "<10", "unit": "%"}]}, {"smiles": "CC[C@H]1C(=O)[C@@H](C)[C@@H](O)[C@H](C)[C@@H]2O[C@H](CC[C@@H]2C)[C@@H](CC)C(=O)OC/C=C/CCC(=O)O[C@@H]2CC[C@]3(O[C@H]1[C@@H](C)C[C@H]3C)O[C@@]21CC[C@@](C)([C@H]2CC[C@](O)(CC)[C@H](C)O2)O1", "values": [{"measurement": "Activity", "setting": "[1]", "value": 67, "unit": "%"}, {"measurement": "IC50", "setting": "[2]", "value": 7.64, "unit": "µM"}]}, {"smiles": "C=CCOC(=O)[C@H](CC)[C@H]1CC[C@H](C)[C@H]([C@@H](C)[C@H](O)[C@H](C)C(=O)[C@H](CC)[C@H]2O[C@]3(CC[C@@H](OC(=O)C=C)[C@]4(CC[C@@](C)([C@H]5CC[C@](O)(CC)[C@H](C)O5)O4)O3)[C@H](C)C[C@@H]2C)O1", "values": [{"measurement": "Activity", "setting": "[1]", "value": "<10", "unit": "%"}]}, {"smiles": "CC[C@H]1C(=O)[C@@H](C)[C@@H](O)[C@H](C)[C@@H]2O[C@H](CC[C@@H]2C)[C@@H](CC)C(=O)OC/C=C/C(=O)O[C@@H]2CC[C@]3(O[C@H]1[C@@H](C)C[C@H]3C)O[C@@]21CC[C@@](C)([C@H]2CC[C@](O)(CC)[C@H](C)O2)O1", "values": [{"measurement": "Activity", "setting": "[1]", "value": 13.6, "unit": "%"}, {"measurement": "IC50", "setting": "[2]", "value": "> 10", "unit": "µM"}]}, {"smiles": "CC[C@@H](C(=O)[C@@H](C)[C@@H](O)[C@H](C)[C@@H]1O[C@@H]([C@@H](CC)C(=O)O)CC[C@@H]1C)[C@H]1O[C@]2(C=C[C@@H](O)[C@]3(CC[C@@](C)([C@H]4CC[C@](O)(CC)[C@H](C)O4)O3)O2)[C@H](C)C[C@@H]1C", "note": "[SALINOMYCIN]", "values": [{"measurement": "Activity", "setting": "[1]", "value": 76.1, "unit": "%"}]}]}
